Reference: patent US20110098240A1, “PHARMACEUTICAL COMPOSITION COMPRISING A SGLT2 INHIBITOR IN COMBINATION WITH A DPP-IV INHIBITOR” (BOEHRINGER INGELHEIM INTERNATIONAL GMBH, priority 2007, published 2011)

Assays:
[1] = oral glucose tolerance test in overnight fasted rats; assay type: in vivo, male Sprague Dawley rats (Crl:CD(SD)); conditions: single oral dose 30 min before oral glucose load 2 g/kg; Cpd. A 1 mg/kg, dapagliflozin 0.3 mg/kg, combination at same doses; non-diabetic rats, n=5/group; blood glucose up to 120 min
Method: The following example show the beneficial effect on glycemic control of the combination of a SGLT2 inhibitor and a DPP IV inhibitor according to the present invention as compared to the respective monotherapies. All experimental protocols concerning the use of laboratory animals are reviewed by a federal Ethics Committee and approved by governmental authorities. According to this example an oral glucose tolerance test is performed in overnight fasted male Sprague Dawley rats (Crl:CD(SD)) with a body weight of about 200 g. A pre-dose blood sample is obtained by tail bleed. Blood glucose is measured with a glucometer, and the animals are randomized for blood glucose (n=5/group). Subsequently, the groups receive a single oral administration of either vehicle alone (0.5% aqueous hydroxyethylcellulose containing 0.015% Polysorbat 80) or vehicle containing either the SGLT2 inhibitor or the DPPIV inhibitor or the combination of the SGLT2 inhibitor with the DPPIV inhibitor. The animals receive an oral glucose load (2 g/kg) 30 min after compound administration. Blood glucose is measured in tail blood 30 min, 60 min, 90 min, and 120 min after the glucose challenge. Glucose excursion is quantified by calculating the reactive glucose AUC. The data are presented as mean±S.E.M. Statistical comparisons are conducted by Student's t test.
“Cpd. […]

[2] = metformin on its own, in the diabetic; cited from earlier work

Structure (SMILES) | reduction of glucose excursion (reactive glucose AUC) [1] | average improvement in the HbA1c value [2]
CC#CCn1c(N2CCC[C@@H](N)C2)nc2c1c(=O)n(Cc1nc(C)c3ccccc3n1)c(=O)n2C [Cpd. A, 1-[(4-methyl-quinazolin-2-yl)methyl]-3-methyl-7-(2-butyn-1-yl)-8-(3-(R)-amino-piperidin-1-yl)-xanthine] | 25% | 
CCOc1ccc(Cc2cc([C@@H]3O[C@H](CO)[C@@H](O)[C@H](O)[C@H]3O)ccc2Cl)cc1 [dapagliflozin, Dapagliflozin] | 31% | 
CN(C)C(=N)N=C(N)N [metformin] |  | 1.0-1.5%
